Data set [1] has as its target T1, OCT3 (SLC22A3) (Homo sapiens, UniProt O75751).
T1 sequence (O75751 whole entry): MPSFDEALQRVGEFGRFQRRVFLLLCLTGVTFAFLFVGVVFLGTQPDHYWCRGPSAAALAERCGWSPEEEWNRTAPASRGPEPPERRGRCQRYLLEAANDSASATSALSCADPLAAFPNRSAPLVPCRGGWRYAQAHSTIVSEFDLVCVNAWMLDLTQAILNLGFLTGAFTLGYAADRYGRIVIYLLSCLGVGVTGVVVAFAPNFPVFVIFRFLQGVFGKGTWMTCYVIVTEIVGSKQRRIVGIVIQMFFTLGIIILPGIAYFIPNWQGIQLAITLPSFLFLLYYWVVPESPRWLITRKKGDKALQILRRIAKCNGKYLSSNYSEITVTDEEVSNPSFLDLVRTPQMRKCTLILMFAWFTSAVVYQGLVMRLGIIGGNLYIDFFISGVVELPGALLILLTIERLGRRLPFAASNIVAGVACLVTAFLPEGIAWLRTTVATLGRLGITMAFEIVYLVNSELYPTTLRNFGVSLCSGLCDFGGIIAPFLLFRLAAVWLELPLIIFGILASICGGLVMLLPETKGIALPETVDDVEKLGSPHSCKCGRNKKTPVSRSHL
The data set can be described thus: Inhibition of human OCT3 mediated ASP+ uptake overexpressed in HEK293 cells at 20 uM incubated for 5 mins by HPLC-MS/MS analysis relative to control. The format is cell-based. The note with it: HEK293 cells overexpressing OCT3, probe ASP+.

The target of data set [2] is T1, OCT3 (SLC22A3). The data set can be described thus: Inhibition of human OCT3 mediated Famotidine uptake overexpressed in HEK293 cells at 20 uM incubated for 5 mins by HPLC-MS/MS analysis relative to control. The format is cell-based. The note with it: HEK293 cells overexpressing OCT3, probe Famotidine.
The target of data set [3] is T1, OCT3 (SLC22A3). Briefly: Substrate activity at human OCT3 overexpressed in HEK293 cells assessed as uptake ratio incubated for 2 mins by LC-MS/MS analysis. The format is ADME, cell-based. The note with it: HEK293 cells overexpressing OCT3.
Data set [4] deals with T1, OCT3 (SLC22A3). Briefly: Inhibition of human OCT3 mediated (S,S)-Ethambutol uptake overexpressed in HEK293 cells at 20 uM incubated for 5 mins by HPLC-MS/MS analysis relative to control. The note with it: HEK293 cells overexpressing OCT3, probe (S,S)-Ethambutol. The format is cell-based.
For data set [5], the target named is T1, OCT3 (SLC22A3). The data set can be described thus: Inhibition of human OCT3 mediated methylscopolamine uptake overexpressed in HEK293 cells at 20 uM incubated for 5 mins by HPLC-MS/MS analysis relative to control. The note with it: HEK293 cells overexpressing OCT3, probe methylscopolamine. The format is cell-based.
Data set [6] deals with T1, OCT3 (SLC22A3). Briefly: Inhibition of human OCT3 mediated N-Ethyllidocaine uptake overexpressed in HEK293 cells at 20 uM incubated for 5 mins by HPLC-MS/MS analysis relative to control. The format is cell-based. The note with it: HEK293 cells overexpressing OCT3, probe N-Ethyllidocaine.
Data set [7] deals with T2, Solute carrier family 22 member 3 (Homo sapiens, UniProt O75751).
T2 sequence (O75751 whole entry): T1 sequence (O75751 whole entry)
The data set can be described thus: (§1) Inhibition of human OCT3 overexpressed in HEK293 cells assessed as intracellularly accumulation of ASP+ at 20 uM incubated for 5 mins by HPLC-MS/MS analysis relative to control. The format is cell-based. The note with it: hek293, 5 min, 20 µM.

The target in data set [8] is T1, OCT3 (SLC22A3). The data set can be described thus: Inhibition of OCT3 (unknown origin) overexpressed in HEK293 cells assessed as intracellular accumulation of ASP+ incubated for 2 mins by Analyst AD plate reader method relative to control. The note with it: HEK293 cells overexpressing OCT3, probe ASP+. The format is cell-based. On the set-up: concentration or dose not given beside the values.

Data set [9] concerns the target T1, OCT3 (SLC22A3). The description is as §1. The format is cell-based. The note with it: HEK293 cells overexpressing OCT3, probe ASP+.
Data set [10] deals with Solute carrier family 22 member 2 (Homo sapiens) (UniProt O15244). Briefly: Inhibition of OCT2 mediated (unknown origin) assessed as intracellular accumulation of ASP+ relative to control.
Solute carrier family 22 member 2 (Homo sapiens), sequence (O15244 whole entry, looked up): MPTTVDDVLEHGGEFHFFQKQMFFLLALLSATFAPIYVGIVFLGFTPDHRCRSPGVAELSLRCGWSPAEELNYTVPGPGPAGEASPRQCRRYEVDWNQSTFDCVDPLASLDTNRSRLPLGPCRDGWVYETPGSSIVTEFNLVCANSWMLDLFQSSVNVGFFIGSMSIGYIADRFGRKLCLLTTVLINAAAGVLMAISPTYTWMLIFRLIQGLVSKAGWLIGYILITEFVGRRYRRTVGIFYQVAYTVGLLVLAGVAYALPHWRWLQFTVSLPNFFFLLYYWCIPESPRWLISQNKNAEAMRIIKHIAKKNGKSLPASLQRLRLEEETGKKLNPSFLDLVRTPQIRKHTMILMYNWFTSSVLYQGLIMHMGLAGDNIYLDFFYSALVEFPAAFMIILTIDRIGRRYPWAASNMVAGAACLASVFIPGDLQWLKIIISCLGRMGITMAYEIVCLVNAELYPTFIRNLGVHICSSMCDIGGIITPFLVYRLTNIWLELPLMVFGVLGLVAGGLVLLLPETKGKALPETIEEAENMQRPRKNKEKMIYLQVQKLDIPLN
The target of data set [11] is OCT1 (Homo sapiens, UniProt O15245). The data set can be described thus: Substrate activity at OCT1 (unknown origin) assessed as uptake ratio. The format is ADME, cell-based. The note with it: HEK293 cells.
OCT1, sequence (O15245 whole entry, looked up): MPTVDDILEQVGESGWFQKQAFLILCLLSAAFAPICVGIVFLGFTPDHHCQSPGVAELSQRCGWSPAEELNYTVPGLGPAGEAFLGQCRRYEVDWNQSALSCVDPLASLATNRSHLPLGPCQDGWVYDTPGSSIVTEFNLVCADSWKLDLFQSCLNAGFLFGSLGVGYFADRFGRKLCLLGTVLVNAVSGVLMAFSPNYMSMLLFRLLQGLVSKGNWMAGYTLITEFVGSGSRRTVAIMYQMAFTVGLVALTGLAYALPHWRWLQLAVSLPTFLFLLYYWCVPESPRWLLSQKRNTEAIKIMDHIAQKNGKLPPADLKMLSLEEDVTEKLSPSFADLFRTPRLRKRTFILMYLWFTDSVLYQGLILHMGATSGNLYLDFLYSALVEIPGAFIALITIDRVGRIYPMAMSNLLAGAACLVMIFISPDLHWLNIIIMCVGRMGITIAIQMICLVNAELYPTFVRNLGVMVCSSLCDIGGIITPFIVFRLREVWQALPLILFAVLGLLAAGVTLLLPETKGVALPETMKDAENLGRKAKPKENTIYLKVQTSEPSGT
In data set [12] the target is OCT2 (Homo sapiens, UniProt O15244). The data set can be described thus: Substrate activity at human OCT2 overexpressed in HEK293 cells assessed as uptake ratio incubated for 2 mins by LC-MS/MS analysis. The format is ADME, cell-based. The note with it: HEK293 cells overexpressing OCT2.
OCT2, sequence (O15244 whole entry, looked up): as the sequence (O15244 whole entry, looked up) above

One may read the inhibition as the relative decrease from the control value, in per cent.

On to `CC[N+](CC)(CC)CC(=O)Nc1c(C)cccc1C`, for which the inhibition at 5 min, 20 µM was 16% in [1], 52% in data set [2], 44% in data set [4] and 15% in data set [5]. Further, in data set [3], the uptake ratio at 2 min was determined as 50.

Turning to `CC[N+](CC)(CC)Cc1ccccc1`, the inhibition at 5 min, 20 µM in [1] came out at 5%; in data set [5], 49%. Also, the uptake ratio at 2 min in data set [3] turned out to be 62.5.

For `CN(C)c1ccc(/C=C/c2cc[n+](C)cc2)cc1`, the inhibition at 5 min, 20 µM in [2] was found to be 63%; in [4] it was 51%; in data set [5], 58%; in [6] it was 70%.

Consider `N=C(N)N1Cc2ccccc2C(O)C1` (stereo unspecified), for which, in [3], the uptake ratio at 2 min worked out at 38.

Take `C[N+]1(CCC(C(N)=O)(c2ccccc2)c2ccccc2)CCCCC1`: in data set [7], the “inhibition (INH)” value is given as “Active”.

In the case of `C[N+]1(C)[C@@H]2C[C@H](OC(=O)[C@H](CO)c3ccccc3)C[C@H]1[C@@H]1O[C@@H]12`, the inhibition at 5 min, 20 µM is 0% in data set [1], 40% in data set [2], 27% in data set [4] and 21% in data set [6].

With `Cc1cc(N)c2ccccc2[n+]1CCCCCCCCCC[n+]1c(C)cc(N)c2ccccc21`, in data set [8], the inhibition at 2 min is 66.6%.

As to `C[N+]1(C)[C@@H]2C[C@H](OC(=O)C(O)(c3cccs3)c3cccs3)C[C@H]1[C@@H]1O[C@@H]12`, the uptake ratio at 2 min in data set [3] amounted to 50.

Regarding `CNCC/C=C1\c2ccccc2CC(O)c2ccccc21` (stereo unspecified), the inhibition at 5 min, 20 µM in data set [9] worked out at 86.7%.

For the molecule `CN(C)CCC=C1c2ccccc2CC(O)c2ccccc21` (stereo unspecified), the inhibition at 5 min, 20 µM in data set [9] was 79.3%.

Consider `N=C(NCCCCCCNC(=N)NC(=N)Nc1ccc(Cl)cc1)NC(=N)Nc1ccc(Cl)cc1`, for which the inhibition in data set [10] came to 105%.

On to `COc1ccc2[nH]cc(CCN)c2c1` [5-METHOXYTRYPTAMINE], for which the uptake ratio in [11] worked out at 3.8. The uptake ratio at 2 min came out at 2.2 in data set [3] and 7.1 in data set [12].

Regarding `CCCCC(CC)CNC(=N)NC(=N)NCCCCCCNC(=N)NC(=N)NCC(CC)CCCC` (stereo unspecified) [ALEXIDINE], the inhibition at 2 min in data set [8] is 98.1%. For the same molecule, the inhibition at 5 min, 20 µM in [9] worked out at 103%.

As for `CN(C)CCC=C1c2ccccc2CCc2ccccc21` [AMITRIPTYLINE], in data set [9], the inhibition at 5 min, 20 µM is 80%.

On to `[H]/N=C(\N/C(=N/[H])NCCCCCCNC(=N)NC(=N)Nc1ccc(Cl)cc1)Nc1ccc(Cl)cc1` [CHLORHEXIDINE], for which, in data set [8], the inhibition at 2 min was 98.4%. In addition, the inhibition at 5 min, 20 µM in data set [9] was found to be 98.4%.

With `CC(C)(C)NCC(O)c1ccc(O)c(O)c1` (stereo unspecified) [COLTEROL], the uptake ratio at 2 min in data set [3] turned out to be 53.

For `C[C@@H](Oc1cc(-c2cnn(C3CCNCC3)c2)cnc1N)c1c(Cl)ccc(F)c1Cl` [CRIZOTINIB], the inhibition at 5 min, 20 µM in [9] stood at 90.4%.

As to `C[N+]1(C)CCN(c2ccccc2)CC1` [DIMETHYLPHENYLPIPERAZINIUM], in data set [3], the uptake ratio at 2 min came out at 46.

On to `CC[C@@H](CO)NCCN[C@@H](CC)CO` [ETHAMBUTOL], for which the inhibition at 5 min, 20 µM in [1] is 7%; in [2] it was -1%; in [5], -13%; in data set [6], -7%.

As to `CN[C@@H]1CCc2[nH]c3ccc(C(N)=O)cc3c2C1` [FROVATRIPTAN], in data set [11], the uptake ratio amounted to 30.3. In addition, the uptake ratio at 2 min in data set [3] was 7.7; in [12], 10.8.

As for `CN(C)c1ccc(C(=C2C=CC(=[N+](C)C)C=C2)c2ccc(N(C)C)cc2)cc1` [GENTIAN VIOLET], the inhibition at 2 min in data set [8] was 107%. Besides, the inhibition at 5 min, 20 µM in data set [9] is 81.4%. Moreover, the inhibition in data set [10] came to 116%.

For `CC(C)[N+]1(C)[C@@H]2CC[C@H]1C[C@@H](OC(=O)C(CO)c1ccccc1)C2` (stereo partly specified) [IPRATROPIUM], the inhibition at 2 min in [8] was 47.8%. Also, the inhibition at 5 min, 20 µM in data set [9] came out at 79.1%.

`CCC(NC(C)C)C(O)c1ccc(O)c(O)c1` (stereo unspecified) [ISOETHARINE]: the uptake ratio at 2 min in [3] was 23.3.

As to `C[N+]1(CC2CC2)CC[C@]23c4c5ccc(O)c4O[C@H]2C(=O)CC[C@@]3(O)[C@H]1C5` (stereo partly specified) [METHYLNALTREXONE], in data set [3], the uptake ratio at 2 min amounted to 102.

In the case of `CNCCC=C1c2ccccc2CCc2ccccc21` [NORTRIPTYLINE], the inhibition at 5 min, 20 µM in data set [9] turned out to be 80%.

Turning to `Cc1nc2n(c(=O)c1CCN1CCC(c3noc4cc(F)ccc34)CC1)CCCC2O` (stereo unspecified) [PALIPERIDONE], the inhibition at 5 min, 20 µM in data set [9] was determined as 87.7%.

`[H]/N=C(/N)N/C(=N/[H])NCCc1ccccc1` [PHENFORMIN]: the uptake ratio at 2 min in data set [3] came out at 32.2.

Regarding `CN(C)CCc1c[nH]c2ccc(Cn3cncn3)cc12` [RIZATRIPTAN], the uptake ratio in data set [11] was 4.3. The results for the uptake ratio at 2 min in data set [3] and in [12] were 2.4 and 4.1, respectively.

For the molecule `CC(=O)S[C@@H]1CC2=CC(=O)CC[C@]2(C)[C@H]2CC[C@@]3(C)[C@@H](CC[C@@]34CCC(=O)O4)[C@H]12` [SPIRONOLACTONE], the inhibition at 5 min, 20 µM in data set [9] stood at 93.9%. Moreover, the inhibition in [10] was 84.2%.

Consider `Cc1ccc(O)c([C@H](CCN(C(C)C)C(C)C)c2ccccc2)c1` [TOLTERODINE], for which the inhibition at 5 min, 20 µM in [9] stood at 96.1%.

As to `O=C(O[C@H]1C[C@H]2CC[C@@H](C1)[N+]21CCCC1)C(O)(c1ccccc1)c1ccccc1` [TROSPIUM], the “inhibition (INH)” value in data set [7] is given as “Active”.

On to `CN(C)CCc1c[nH]c2ccc(C[C@H]3COC(=O)N3)cc12` [ZOLMITRIPTAN], for which, in data set [11], the uptake ratio turned out to be 9.3. Further, the values for the uptake ratio at 2 min in data set [3] and in [12] were 22 and 1.2, respectively.

The values are drawn from ChEMBL document CHEMBL5113524, “Substrates and Inhibitors of the Organic Cation Transporter 3 and Comparison with OCT1 and OCT2” (J Med Chem, 2022).
